The data set in a line: release profiles of drugs from halloysite tubule compositions, relative to total release amounts (FIGS. 4 and 5). The class given is physicochemical. To be noted: release from mineral-derived tubule composition relative to total release amount; FIG. 4 (Tetracycline), FIG. 5 (Khellin).

Molecules are shown by their SMILES.

From the text: FIGS. 4 and 5, respectively illustrate, relative to total release amounts, the release profiles for two drugs (Tetracycline and Khellin), wherein prolonged application periods are desired.

In the case of `COc1c2occc2c(OC)c2c(=O)cc(C)oc12` [Khellin], the “release profile extends for” value is “several days”.

These data come from patent US20080194406A1, “METHOD FOR TREATING AGRICULTURAL CROPS USING MATERIALS ASSOCIATED WITH TUBULAR CARRIERS” (NaturalNano, Inc., priority 2005, published 2008).
